How the values were obtained:
PBP1a = molecular target: T1, PBP1a (Pseudomonas aeruginosa, UniProt Q07806); assay: PBP-binding affinity (IC50), bocillin FL, isolated membranes; design: species or system P. aeruginosa PAO1; conditions: PAO1 membranes 0.5 mg/mL, 30 min, 25 µM bocillin FL; read-out: Mean IC50 ± SD, PBP 1a (converted)
T1 construct: PBP-containing membranes were isolated by ultracentrifugation; endogenous in cells; host or cells: P. aeruginosa PAO1 wild type (membrane preparations or intact cells)
Description: (§1) PBP-binding affinity was determined using previously described methods. Briefly, P. aeruginosa PAO1 cultures grown to the midexponential phase (7.6 log10 CFU/mL) were incubated in CAMHB at 37 °C and 180 rpm, washed and centrifuged (3220× g for 10 min at 4 °C). Bacterial pellets were washed in 30 mL of PBS buffer (pH 7.5), resuspended in 10 mL of PBS and sonicated at 40% amplitude for three 2 min bursts (while immersed in an ice bath) and centrifuged at 3220× g for 15 min at 4 °C. PBP-containing membranes were isolated by ultracentrifugation at 150,000× g for 30 min at 4 °C. Total protein concentrations were measured through the Bradford method.
(§2) Subsequently, the fluorescent penicillin bocillin FL was added to a 25 μM final concentration. Labeled PBPs were denatured and separated through 4–15% SDS–polyacrylamide gel electrophoresis. Labeled PBPs were visualized using a Typhoon FLA 9500 biomolecular imager (GE Healthcare Bio-Sciences AB, Uppsala, Sweden) (excitation at 488 nm and emission at 530 nm), and binding was determined from at least three independent experiments using ImageQuant TL software v8.1.0.0 (GE Healthcare Bio-Sciences AB, Uppsala, Sweden).

PBP1b = PBP1b (Pseudomonas aeruginosa, UniProt G3XD31); assay: as above; design: species or system P. aeruginosa PAO1; conditions: PAO1 membranes 0.5 mg/mL, 30 min, 25 µM bocillin FL
Description: as §1, §2

PBP2 = molecular target: T2, PBP2 (Pseudomonas aeruginosa, UniProt Q9X6V3); assay: as above; design: species or system P. aeruginosa PAO1; conditions: PAO1 membranes 0.5 mg/mL, 30 min, 25 µM bocillin FL; read-out: Mean IC50 ± SD, PBP 2 (converted)
T2 construct: PBP-containing membranes were isolated by ultracentrifugation; endogenous in cells; host or cells: P. aeruginosa PAO1 wild type (membrane preparations or intact cells)
Description: as §1, §2

PBP4 = PBP4 (Pseudomonas aeruginosa, UniProt Q9HZG1); assay: as above; design: species or system P. aeruginosa PAO1; conditions: PAO1 membranes 0.5 mg/mL, 30 min, 25 µM bocillin FL; read-out: Mean IC50 ± SD, PBP 4 (converted)
Description: as §1, §2

PBP5/6 = PBP5/6 (Pseudomonas aeruginosa, UniProt G3XD74); assay: as above; design: species or system P. aeruginosa PAO1; conditions: PAO1 membranes 0.5 mg/mL, 30 min, 25 µM bocillin FL; read-out: Mean IC50 ± SD, PBP 5/6 (converted)
Description: as §1, §2

PBP3 = molecular target: T3, PBP3 (Pseudomonas aeruginosa, UniProt G3XD46); assay: biochemical; assay type: binding, P. aeruginosa PAO1; conditions: PAO1 membranes 0.5 mg/mL, 30 min, 25 µM bocillin FL; read-out: Mean IC50 ± SD, PBP 3 (converted)
T3 construct: PBP-containing membranes were isolated by ultracentrifugation; endogenous in cells; host or cells: P. aeruginosa PAO1 wild type (membrane preparations or intact cells)
Description: as §1, §2

[1] = test system: ampC mRNA in 101-E5 (CAZ/AVI-sensitive ST175 clinical isolate); assay: qRT-PCR quantification of AmpC induction; assay type: cell-based, P. aeruginosa; conditions: IPM 8, FOX 64, AVI 16 µg/mL, relative to strain basal t=0
Description: (§3) Samples were taken at 0, 30 and 180 min. Total RNA was extracted with the RNeasy Mini Kit (Qiagen, Hilden, Germany) and treated with TURBO DNase (Thermo Fisher Scientific, Waltham, MA, USA) to remove contaminating DNA. Samples were afterwards normalized to 50 ng/µL.
(§4) Normalized samples were then used for one-step reverse transcription and real-time PCR amplification using the QuantiTect SYBR green qRT-PCR kit (Qiagen, Hilden, Germany) in a CFX Connect Real-Time PCR System (Bio-Rad, Hercules, California, USA). Previously described primer pairs ACrnaF/ACrnaR and rpsL-1/rpsL-2 were used for the amplification of ampC and housekeeping gene rpsL, respectively. The mean values of relative mRNA expression (2^−ΔΔCt) obtained from at least two independent biological replicates and duplicate technical replicates were considered.

[2] = test system: ampC mRNA in 103-H8 (AmpC E247K; PDC-221, CAZ/AVI-resistant ST175 clinical isolate); assay: qRT-PCR quantification of AmpC induction; assay type: cell-based, P. aeruginosa; conditions: IPM 8, FOX 64, AVI 16 µg/mL, relative to strain basal t=0
Description: as §3, §4

[3] = test system: ampC mRNA in 109-E9 (CAZ/AVI-sensitive ST175 clinical isolate); assay: qRT-PCR quantification of AmpC induction; assay type: cell-based, P. aeruginosa; conditions: IPM 8, FOX 64, AVI 16 µg/mL, relative to strain basal t=0
Description: as §3, §4

[4] = test system: ampC mRNA in 110-G8 (AmpC DelG229–E247; PDC-223, CAZ/AVI-resistant ST175 clinical isolate); assay: qRT-PCR quantification of AmpC induction; assay type: cell-based, P. aeruginosa; conditions: IPM 8, FOX 64, AVI 16 µg/mL, relative to strain basal t=0
Description: as §3, §4

[5] = test system: ampC mRNA in PAΔdacB (PBP4 knockout mutant); assay: qRT-PCR quantification of AmpC induction; assay type: cell-based, P. aeruginosa; conditions: 180 min; IPM 8, FOX 64 µg/mL
Description: as §3, §4

[6] = test system: ampC mRNA in wild-type PAO1; assay: qRT-PCR quantification of AmpC induction; assay type: cell-based, P. aeruginosa; conditions: IPM 8, FOX 64, AVI 16 µg/mL, relative to strain basal t=0
Description: as §3, §4

Sequence of PBP1b (G3XD31 entry or part of it): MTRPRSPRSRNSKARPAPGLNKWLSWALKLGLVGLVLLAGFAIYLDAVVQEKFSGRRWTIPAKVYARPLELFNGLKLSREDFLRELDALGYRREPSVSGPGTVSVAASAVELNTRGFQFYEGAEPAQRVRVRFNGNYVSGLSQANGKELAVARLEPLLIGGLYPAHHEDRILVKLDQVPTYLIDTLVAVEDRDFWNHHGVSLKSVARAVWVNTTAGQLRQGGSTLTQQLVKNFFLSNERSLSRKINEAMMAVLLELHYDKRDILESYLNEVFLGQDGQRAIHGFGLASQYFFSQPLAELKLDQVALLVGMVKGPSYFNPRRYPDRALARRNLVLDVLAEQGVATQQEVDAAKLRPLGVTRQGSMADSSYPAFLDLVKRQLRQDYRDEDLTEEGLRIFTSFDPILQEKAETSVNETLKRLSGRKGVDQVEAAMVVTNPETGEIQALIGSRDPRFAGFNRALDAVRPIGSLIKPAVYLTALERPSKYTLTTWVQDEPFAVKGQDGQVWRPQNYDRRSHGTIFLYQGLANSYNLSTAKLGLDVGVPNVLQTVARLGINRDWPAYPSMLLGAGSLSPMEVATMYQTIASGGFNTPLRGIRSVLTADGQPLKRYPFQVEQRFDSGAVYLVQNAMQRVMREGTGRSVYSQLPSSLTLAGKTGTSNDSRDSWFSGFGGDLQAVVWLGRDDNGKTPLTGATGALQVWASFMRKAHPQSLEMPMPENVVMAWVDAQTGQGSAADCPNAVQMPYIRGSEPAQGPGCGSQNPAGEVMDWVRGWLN
Sequence of PBP5/6 (G3XD74 entry or part of it): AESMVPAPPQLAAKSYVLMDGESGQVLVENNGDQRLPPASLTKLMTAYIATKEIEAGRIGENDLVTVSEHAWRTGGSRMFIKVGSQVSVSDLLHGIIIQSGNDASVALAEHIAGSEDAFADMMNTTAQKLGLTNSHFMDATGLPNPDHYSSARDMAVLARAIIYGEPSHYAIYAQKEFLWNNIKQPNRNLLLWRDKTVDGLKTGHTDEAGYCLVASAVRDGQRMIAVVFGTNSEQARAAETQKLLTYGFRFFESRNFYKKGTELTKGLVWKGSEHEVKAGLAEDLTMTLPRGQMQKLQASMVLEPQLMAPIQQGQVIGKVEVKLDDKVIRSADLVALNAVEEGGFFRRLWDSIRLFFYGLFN
T1 sequence (Q07806 whole entry): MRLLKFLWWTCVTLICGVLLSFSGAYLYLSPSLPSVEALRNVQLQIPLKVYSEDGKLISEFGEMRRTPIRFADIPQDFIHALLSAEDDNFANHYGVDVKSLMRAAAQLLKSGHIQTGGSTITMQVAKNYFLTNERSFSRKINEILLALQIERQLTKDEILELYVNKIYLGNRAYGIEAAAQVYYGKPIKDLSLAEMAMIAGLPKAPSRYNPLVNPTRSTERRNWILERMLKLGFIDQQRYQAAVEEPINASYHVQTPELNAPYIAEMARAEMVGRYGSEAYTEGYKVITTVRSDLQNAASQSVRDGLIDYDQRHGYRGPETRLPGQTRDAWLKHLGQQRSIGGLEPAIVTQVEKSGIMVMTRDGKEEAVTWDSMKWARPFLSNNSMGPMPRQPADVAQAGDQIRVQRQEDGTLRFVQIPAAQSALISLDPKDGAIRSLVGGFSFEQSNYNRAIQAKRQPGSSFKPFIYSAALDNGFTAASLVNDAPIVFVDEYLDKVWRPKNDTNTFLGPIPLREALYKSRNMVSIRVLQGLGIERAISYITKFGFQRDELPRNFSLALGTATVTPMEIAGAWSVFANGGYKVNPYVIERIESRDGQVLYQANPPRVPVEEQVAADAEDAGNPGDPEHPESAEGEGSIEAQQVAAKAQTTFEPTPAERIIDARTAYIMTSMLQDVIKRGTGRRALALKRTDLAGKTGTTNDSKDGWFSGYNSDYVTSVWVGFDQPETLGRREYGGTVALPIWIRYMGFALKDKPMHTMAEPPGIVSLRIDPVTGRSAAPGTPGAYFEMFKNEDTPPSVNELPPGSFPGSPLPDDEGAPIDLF
T2 sequence (Q9X6V3 entry or part of it): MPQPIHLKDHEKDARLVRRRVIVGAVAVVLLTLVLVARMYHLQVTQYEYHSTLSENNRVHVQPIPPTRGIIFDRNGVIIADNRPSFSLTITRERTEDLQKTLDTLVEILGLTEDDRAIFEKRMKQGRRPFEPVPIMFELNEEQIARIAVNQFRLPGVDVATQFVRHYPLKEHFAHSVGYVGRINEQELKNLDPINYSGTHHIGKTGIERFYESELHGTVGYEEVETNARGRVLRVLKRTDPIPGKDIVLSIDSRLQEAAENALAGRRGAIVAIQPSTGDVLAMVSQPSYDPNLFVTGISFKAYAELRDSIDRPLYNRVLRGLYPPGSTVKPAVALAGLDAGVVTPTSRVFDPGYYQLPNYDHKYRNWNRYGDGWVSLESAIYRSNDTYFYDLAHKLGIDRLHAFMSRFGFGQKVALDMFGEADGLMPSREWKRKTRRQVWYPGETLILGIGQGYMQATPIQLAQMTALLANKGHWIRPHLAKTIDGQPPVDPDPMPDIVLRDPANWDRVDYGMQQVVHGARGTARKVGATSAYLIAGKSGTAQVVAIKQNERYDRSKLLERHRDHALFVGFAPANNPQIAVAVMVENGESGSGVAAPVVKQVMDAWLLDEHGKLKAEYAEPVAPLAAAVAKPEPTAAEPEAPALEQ
Sequence of PBP4 (Q9HZG1 entry or part of it): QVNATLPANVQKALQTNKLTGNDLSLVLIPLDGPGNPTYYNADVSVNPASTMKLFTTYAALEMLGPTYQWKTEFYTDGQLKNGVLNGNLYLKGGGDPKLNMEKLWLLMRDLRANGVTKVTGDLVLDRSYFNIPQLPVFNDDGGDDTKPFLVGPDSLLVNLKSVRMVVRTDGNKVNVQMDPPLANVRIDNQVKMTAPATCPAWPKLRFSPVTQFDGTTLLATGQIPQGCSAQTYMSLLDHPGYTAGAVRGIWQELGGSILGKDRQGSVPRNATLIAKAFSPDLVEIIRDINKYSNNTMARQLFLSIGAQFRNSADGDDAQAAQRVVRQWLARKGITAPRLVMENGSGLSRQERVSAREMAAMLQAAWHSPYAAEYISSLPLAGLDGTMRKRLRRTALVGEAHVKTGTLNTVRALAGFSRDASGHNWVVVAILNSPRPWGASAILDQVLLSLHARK
T3 sequence (G3XD46 whole entry): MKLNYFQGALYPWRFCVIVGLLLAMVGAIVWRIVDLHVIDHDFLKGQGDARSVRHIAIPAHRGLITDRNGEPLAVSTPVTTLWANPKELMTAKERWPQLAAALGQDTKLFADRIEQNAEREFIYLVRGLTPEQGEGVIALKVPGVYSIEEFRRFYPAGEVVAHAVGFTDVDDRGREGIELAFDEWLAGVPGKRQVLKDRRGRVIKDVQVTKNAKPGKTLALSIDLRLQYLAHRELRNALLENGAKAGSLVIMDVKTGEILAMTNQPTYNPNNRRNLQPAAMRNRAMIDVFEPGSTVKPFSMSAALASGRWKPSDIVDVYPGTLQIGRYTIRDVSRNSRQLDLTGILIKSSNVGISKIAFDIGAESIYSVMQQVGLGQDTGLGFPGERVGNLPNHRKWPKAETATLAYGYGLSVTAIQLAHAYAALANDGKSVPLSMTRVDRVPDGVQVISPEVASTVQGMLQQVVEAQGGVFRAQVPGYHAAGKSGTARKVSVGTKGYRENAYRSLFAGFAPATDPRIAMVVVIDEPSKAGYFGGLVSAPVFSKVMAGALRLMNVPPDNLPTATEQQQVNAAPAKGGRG

In the case of CO[C@@]1(NC(=O)Cc2cccs2)C(=O)N2C(C(=O)O)=C(COC(N)=O)CS[C@@H]21 [Cefoxitin], the IC50 (PBP1a) is reported as 18.2 µM, the “Mean IC50 ± SD, PBP 1b” value (PBP1b) is reported as “no PBP1b binding was detected” and the IC50 (PBP1b; read-out: Mean IC50 ± SD, PBP 1b (converted)) is reported as > 74.9 µM. For the same compound, the IC50 (PBP2) was 34.2 µM, the IC50 (PBP4) was 3.51 µM and the IC50 (PBP5/6) was 21.1 µM. The IC50 (PBP3) was 25 µM, the “Relative ampC expression” value ([1]; 101-E5, 0 min) was 3.7 and the “Relative ampC expression” value ([1]; 101-E5, 30 min) was 1.7. The “Relative ampC expression” value ([1]; 101-E5, 180 min) was 5.7 ± 2.8, the “Relative ampC expression” value ([1]; 101-E5, 180 min, listed as FOX) was 5.7 and the “Relative ampC expression” value ([2]; 103-H8, 0 min) was 1.4. The “Relative ampC expression” value ([2]; 103-H8, 30 min) was 14.0, the “Relative ampC expression” value ([2]; 103-H8, 180 min) was 50 ± 36.5 and the “Relative ampC expression” value ([2]; 103-H8, 180 min, listed as FOX) was 50.0. For the same compound, the “Relative ampC expression” value ([3]; 109-E9, 0 min) was 0.9, the “Relative ampC expression” value ([3]; 109-E9, 30 min) was 4.1 and the “Relative ampC expression” value ([3]; 109-E9, 180 min) was 8.8 ± 7.9. For the same compound, the “Relative ampC expression” value ([3]; 109-E9, 180 min, listed as FOX) was 8.8, the “Relative ampC expression” value ([4]; 110-G8, 0 min) was 3.3 and the “Relative ampC expression” value ([4]; 110-G8, 30 min) was 51.8 ± 13.2. The “Relative ampC expression” value ([4]; 110-G8, 30 min, listed as FOX) was 51.8, the “Relative ampC expression” value ([4]; 110-G8, 180 min) was 29.2 ± 13.1 and the “Relative ampC expression” value ([4]; 110-G8, 180 min, listed as FOX) was 29.2. For the same compound, the “ampC inducibility of PBP4 (dacB) mutant, fold lower than parental strain PAO1” value [5] was 32 fold, the “Relative ampC expression” value ([6]; PAO1, 0 min) was 0.9 and the “Relative ampC expression” value ([6]; PAO1, 30 min) was 3100. The “Relative ampC expression” value ([6]; PAO1, 180 min) was 2500.
In the case of C[C@@H](O)[C@H]1C(=O)N2C(C(=O)O)=C(SCCN=CN)C[C@H]12 [Imipenem], the IC50 (PBP1a) is reported as < 0.835 µM, the IC50 (PBP2) is reported as < 0.835 µM and the IC50 (PBP5/6) is reported as 1.67 µM.

— PMC8002452, “Molecular Basis of AmpC β-Lactamase Induction by Avibactam in Pseudomonas aeruginosa: PBP Occupancy, Live Cell Binding Dynamics and Impact on Resistant Clinical Isolates Harboring PDC-X Variants” (International Journal of Molecular Sciences, 2021)
